Measured values published in ChEMBL document CHEMBL1201862, “PubChem BioAssay data set” (2004).
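Compound exposure: 48 hours, 5 concentrations, 96-well plates. Here, GI50 denotes the concentration required for 50% inhibition of growth.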 Calls of active or inactive are those of the source. Rule as the data show it: active = GI50 up to about 1.1 µM and inactive = higher.

How the values were obtained:
Test in all cases: inhibition of tumour cell growth, NCI panel, 48 h
SNB-75 = test system: SNB-75
K562 = test system: K562
SK-OV-3 = test system: SK-OV-3
OVCAR-5 = test system: OVCAR-5
U-251 = test system: U-251
A498 = test system: A498
EKVX = test system: EKVX
SW-620 = test system: SW-620
OVCAR-3 = test system: OVCAR-3
HT-29 = test system: HT-29
DMS-114 = test system: DMS-114
UACC-62 = test system: UACC-62
NCI-H522 = test system: NCI-H522
Malme-3M = test system: Malme-3M
HCC 2998 = test system: HCC 2998
HCT-15 = test system: HCT-15
BT-549 = test system: BT-549
MDA-MB-435 = test system: MDA-MB-435
HCT-116 = test system: HCT-116
MDA-N = test system: MDA-N

Measured: GI50

COc1cc(NS(=O)(=O)c2ccc(C)cc2)c2nccnc2c1
17.7 µM: HCT-15
inactive: SNB-75 24.3 µM | K562 20.4 µM | SK-OV-3 84.9 µM | OVCAR-5 89.7 µM | U-251 22.1 µM | A498 56.2 µM | EKVX 39.8 µM | SW-620 37.8 µM | OVCAR-3 32.4 µM | HT-29 36.8 µM | DMS-114 14.6 µM | UACC-62 14.8 µM | NCI-H522 20.7 µM | Malme-3M 37.2 µM | HCC 2998 47.6 µM

CNCCCNc1c2ccccc2nc2cccc([N+](=O)[O-])c12
0.00957 µM: HCT-15
active: BT-549 2.3 nM | SNB-75 0.00438 µM | K562 0.00407 µM | SK-OV-3 0.0103 µM | OVCAR-5 0.00459 µM | MDA-MB-435 1.66 nM | HCT-116 0.00242 µM | U-251 0.00344 µM | MDA-N 1.6 nM | A498 0.0029 µM | EKVX 0.00809 µM | SW-620 0.00321 µM | OVCAR-3 0.00449 µM | HT-29 0.00337 µM | DMS-114 0.00221 µM | UACC-62 0.00468 µM | NCI-H522 0.000449 µM | Malme-3M 0.0043 µM | HCC 2998 0.00445 µM

Cc1ccc([S+](c2ccccc2)c2cc(C)ccc2C)cc1 (stereo not given)
active: SNB-75 < 0.01 µM | K562 0.374 µM | A498 0.0435 µM | DMS-114 1.08 µM | Malme-3M 0.271 µM
inactive: HCT-116 2.94 µM | EKVX 1.17 µM | SW-620 5.64 µM | OVCAR-3 2.26 µM | UACC-62 4.52 µM | NCI-H522 3.13 µM | HCC 2998 1.7 µM

COc1ccc2c(c1)CC1NC2Cc2ccccc21 (stereo not given)
inactive: SNB-75 > 100 µM | K562 > 100 µM | SK-OV-3 > 100 µM | OVCAR-5 > 100 µM | HCT-116 > 100 µM | U-251 > 100 µM | A498 > 100 µM | EKVX > 100 µM | SW-620 > 100 µM | OVCAR-3 > 100 µM | HT-29 > 100 µM | DMS-114 > 100 µM | UACC-62 > 100 µM | NCI-H522 > 100 µM | Malme-3M > 100 µM | HCC 2998 > 100 µM
> 100 µM: HCT-15

CCOC(=O)/C(=C\c1ccccc1)C(=O)O
inactive: K562 > 100 µM | SK-OV-3 > 100 µM | OVCAR-5 > 100 µM | HCT-116 > 100 µM | U-251 > 100 µM | A498 > 100 µM | EKVX > 100 µM | SW-620 > 100 µM | OVCAR-3 > 100 µM | HT-29 > 100 µM | DMS-114 > 100 µM | UACC-62 > 100 µM | NCI-H522 > 100 µM | Malme-3M > 100 µM | HCC 2998 > 100 µM
> 100 µM: HCT-15

Clc1ccc(C2=Nc3ccccc3SC(c3cccs3)C2)cc1 (stereo not given)
inactive: SNB-75 16.9 µM | K562 5.16 µM | SK-OV-3 16.8 µM | OVCAR-5 14.5 µM | HCT-116 7.67 µM | U-251 11.8 µM | A498 14.9 µM | EKVX 17.5 µM | SW-620 13.1 µM | OVCAR-3 11.5 µM | HT-29 14.3 µM | DMS-114 15.2 µM | UACC-62 15.3 µM | NCI-H522 18.1 µM | Malme-3M > 10 µM | HCC 2998 17 µM
14 µM: HCT-15

COc1cc(/C=C\c2ccc(Br)cc2)cc(OC)c1OC
active: SNB-75 0.000422 µM | K562 0.000386 µM | HCT-116 0.000515 µM | U-251 0.000463 µM | A498 0.01 µM | EKVX 0.00385 µM | SW-620 0.000382 µM | OVCAR-3 0.000341 µM | HT-29 0.01 µM | DMS-114 0.000986 µM | UACC-62 0.000404 µM | NCI-H522 0.000357 µM | Malme-3M 0.0024 µM | HCC 2998 0.0155 µM
0.00333 µM: HCT-15
inactive: SK-OV-3 58.2 µM | OVCAR-5 35.4 µM
